Common to all, as to format: cell-based
What all share (conditions): n = 2

One test deals with T1, hGluc-R (Homo sapiens, UniProt P47871).
T1 construct: expressed in transfected cells
Kind of test: cAMP functional assay, cells expressing human glucagon receptor (primary assay). As for the experimental part: The biological activities/receptor potencies of the synthetic GLP-1 peptides described herein are suitably tested for biological activity, e.g., stimulation of one or more cellular receptor responses. Stable cell lines expressing human, mouse, rat, or dog GLP-1 receptor (GLP-1R), glucagon receptor (GCGR) or glucose-dependent insulinotropic peptide (gastric inhibitory polypeptide) receptor (GIPR) are generated in HEK293 cells or CHO cells by standard methods.
cAMP assays were performed using “assay buffer”: Assay Buffer: 0.1% BSA (Sigma #A3059) in HBSS (Sigma #H8264) with 25 mM HEPES, pH 7.4 and containing 0.5 mM IBMX (Sigma #17018).
Low protein binding 384-well plates (Greiner #781280) are used to perform eleven 1 in 5 serial dilutions of test samples which are made in assay buffer. All sample dilutions are made in duplicate.
A frozen cryo-vial of cells expressing the receptor of interest is thawed rapidly in a water-bath, transferred to pre-warmed assay buffer and spun at 240× g for 5 minutes. Cells are re-suspended in assay buffer at a batch-dependent optimized concentration (e.g. hGCGR cells at 2×10^5 cells/ml, hGLP-1R and hGIPR cells at 1×10^5 cells /ml).
From the dilution plate, a 5 μL replica is stamped onto a black shallow-well u-bottom 384-well plate (Corning #3676). To this, 5 μL cell suspension is added and the plates incubated at room temperature for 30 minutes.
cAMP levels are measured using a commercially available cAMP dynamic 2 HTRF kit (Cisbio, Cat #62AM4PEJ), following the two step protocol as per manufacturer's recommendations. In brief; anti-cAMP cryptate (donor fluorophore) and cAMP-d2 (acceptor fluorophore) are made up separately by diluting each 1/20 in conjugate & lysis buffer provided in the kit. 5 μL anti-cAMP cryptate is added to all wells of the assay plate, and 5 μL cAMP-d2 is added to all wells except non-specific binding (NSB) wells, to which conjugate and lysis buffer are added. Plates are incubated at room temperature for one hour and then read on an Envision (Perkin Elmer) using excitation wavelength of 320 nm and emission wavelengths of 620 nm & 665 nm. EC50 values of the synthetic peptides determined in cAMP assays are then determined.

The target of another test is T2, hGLP-1R (Homo sapiens, UniProt P43220).
T2 construct: expressed in transfected cells
Kind of test: cAMP functional assay, cells expressing human GLP-1 receptor (primary assay).

The target of a further test is T3, hGIP-R (Homo sapiens, UniProt P48546).
T3 construct: expressed in transfected cells
T3 sequence (P48546 22-466): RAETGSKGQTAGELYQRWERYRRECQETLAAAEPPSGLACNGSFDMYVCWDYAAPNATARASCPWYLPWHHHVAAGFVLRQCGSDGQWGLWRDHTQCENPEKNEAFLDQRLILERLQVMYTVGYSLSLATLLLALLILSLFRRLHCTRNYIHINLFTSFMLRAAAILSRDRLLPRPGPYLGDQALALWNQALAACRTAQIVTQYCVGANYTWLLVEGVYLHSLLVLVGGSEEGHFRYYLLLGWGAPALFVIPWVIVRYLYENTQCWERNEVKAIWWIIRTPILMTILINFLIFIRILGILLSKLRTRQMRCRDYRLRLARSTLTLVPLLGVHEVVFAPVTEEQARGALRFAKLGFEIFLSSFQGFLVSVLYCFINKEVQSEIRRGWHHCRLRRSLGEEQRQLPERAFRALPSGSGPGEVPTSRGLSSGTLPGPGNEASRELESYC
Description: cAMP functional assay, cells expressing human GIP receptor (primary assay).

Structures are written as SMILES. pEC50: −log10 of the molar value. Where a SMILES comes first, the peptide text is derived from it. [ ]: non-standard residue; d: D form. αMeF = C[C@](N)(Cc1ccccc1)C(=O)O; Aib = CC(C)(N)C(=O)O

Broadly, the pEC50 is the EC50 on a negative log10 scale, so that one unit is a factor of ten.

T2 sequence (P43220 24-463): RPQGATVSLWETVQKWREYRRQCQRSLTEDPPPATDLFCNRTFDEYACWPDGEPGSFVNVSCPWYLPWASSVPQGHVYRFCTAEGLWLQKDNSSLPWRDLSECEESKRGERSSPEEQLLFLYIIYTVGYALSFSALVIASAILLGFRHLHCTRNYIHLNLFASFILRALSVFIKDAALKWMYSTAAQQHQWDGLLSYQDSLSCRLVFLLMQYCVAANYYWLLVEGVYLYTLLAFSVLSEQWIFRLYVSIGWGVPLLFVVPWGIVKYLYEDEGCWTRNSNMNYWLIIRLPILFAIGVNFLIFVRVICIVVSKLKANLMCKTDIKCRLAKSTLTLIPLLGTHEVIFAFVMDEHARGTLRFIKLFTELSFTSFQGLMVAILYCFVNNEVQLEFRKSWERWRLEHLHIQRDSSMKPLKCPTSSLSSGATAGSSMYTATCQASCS
T1 sequence (P47871 26-477): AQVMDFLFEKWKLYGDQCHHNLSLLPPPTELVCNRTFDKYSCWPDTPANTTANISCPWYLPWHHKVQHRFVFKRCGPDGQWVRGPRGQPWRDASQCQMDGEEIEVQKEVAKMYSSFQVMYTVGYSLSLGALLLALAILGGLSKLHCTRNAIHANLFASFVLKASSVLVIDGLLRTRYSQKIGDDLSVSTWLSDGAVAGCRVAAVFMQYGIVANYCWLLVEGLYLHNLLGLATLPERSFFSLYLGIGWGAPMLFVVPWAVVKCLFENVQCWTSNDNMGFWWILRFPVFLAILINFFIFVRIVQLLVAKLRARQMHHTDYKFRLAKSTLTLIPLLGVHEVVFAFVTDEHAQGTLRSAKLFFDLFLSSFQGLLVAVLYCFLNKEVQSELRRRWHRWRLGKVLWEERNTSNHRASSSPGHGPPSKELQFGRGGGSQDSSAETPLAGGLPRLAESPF

As for `CCCCCCCCCCCCCCCC(=O)NCCCC[C@H](NC(=O)[C@H](CCCNC(=N)N)NC(=O)CNC(=O)[C@H](CCCCN)NC(=O)[C@@H](NC(=O)[C@H](CC(C)C)NC(=O)[C@H](Cc1c[nH]c2ccccc12)NC(=O)[C@H](C)NC(=O)[C@@H](NC(=O)[C@H](Cc1ccccc1)NC(=O)[C@H](CCC(=O)O)NC(=O)[C@H](CCCCN)NC(=O)[C@H](C)NC(=O)[C@H](C)NC(=O)[C@H](CCC(N)=O)NC(=O)CNC(=O)[C@H](CCC(=O)O)NC(=O)[C@H](CC(C)C)NC(=O)[C@H](Cc1ccc(O)cc1)NC(=O)[C@H](CO)NC(=O)[C@H](CO)NC(=O)[C@@H](NC(=O)[C@H](CC(=O)O)NC(=O)[C@H](CO)NC(=O)[C@@H](NC(=O)[C@H](Cc1ccccc1)NC(=O)[C@@H](NC(=O)CNC(=O)[C@H](CCC(=O)O)NC(=O)C(C)(C)NC(=O)[C@@H](N)Cc1c[nH]cn1)[C@@H](C)O)[C@@H](C)O)C(C)C)[C@@H](C)CC)C(C)C)C(N)=O` [SEQ ID NO: 5, H-(Aib)^2-EGT^5 FTSDV^10 SSYLE^15 GQAAK^20 EFIAW^25 LVKGR^30-K(Ε-Palm), reference compound], the negative logarithm of the EC50 (pEC50) was 7.04 at hGluc-R, 10.60 on hGLP-1R and 7.04 at hGIP-R.

For `CC[C@H](C)[C@H](NC(=O)[C@H](Cc1ccccc1)NC(=O)[C@H](CCC(=O)O)NC(=O)[C@H](CCCCN)NC(=O)[C@H](C)NC(=O)[C@H](C)NC(=O)[C@H](CCC(N)=O)NC(=O)CNC(=O)[C@H](CCC(=O)O)NC(=O)[C@H](CC(C)C)NC(=O)[C@](C)(Cc1ccccc1)NC(=O)[C@H](CO)NC(=O)[C@H](CO)NC(=O)[C@@H](NC(=O)[C@H](CC(=O)O)NC(=O)[C@H](CO)NC(=O)[C@@H](NC(=O)[C@H](Cc1ccccc1)NC(=O)[C@@H](NC(=O)CNC(=O)[C@H](CCC(=O)O)NC(=O)C(C)(C)NC(=O)[C@@H](N)Cc1c[nH]cn1)[C@@H](C)O)[C@@H](C)O)C(C)C)C(=O)N[C@@H](C)C(=O)N[C@@H](Cc1c[nH]c2ccccc12)C(=O)N[C@@H](CC(C)C)C(=O)N[C@H](C(=O)N[C@@H](CCCCN)C(=O)NCC(=O)N[C@@H](CCCNC(=N)N)C(N)=O)C(C)C` [SEQ ID NO: 9, H-(Aib)^2-EGT^5 FTSDV^10 SS-(α-MeF)^13-LE^15 GQAAK^20 EFIAW^25 LVKGR^30] (H-H[Aib]EGTFTSDVSS[αMeF]LEGQAAKEFIAWLVKGR-NH2), the pEC50 was 6.85 at hGluc-R, 10.47 on hGLP-1R and 6.85 at hGIP-R.

For `CCCCCCCCCCCCCCCC(=O)N[C@@H](CCC(=O)NCCCC[C@H](NC(=O)[C@](C)(CCCNC(=N)N)NC(=O)CNC(=O)[C@](C)(CCCCN)NC(=O)[C@@H](NC(=O)[C@H](CC(C)C)NC(=O)[C@](C)(Cc1c[nH]c2ccccc12)NC(=O)[C@H](C)NC(=O)[C@@H](NC(=O)[C@](C)(Cc1ccccc1)NC(=O)[C@H](CCC(=O)O)NC(=O)[C@](C)(CCCCN)NC(=O)[C@H](C)NC(=O)[C@H](C)NC(=O)[C@H](CCC(N)=O)NC(=O)CNC(=O)[C@H](CCC(=O)O)NC(=O)[C@H](CC(C)C)NC(=O)[C@](C)(Cc1ccc(O)cc1)NC(=O)[C@H](CO)NC(=O)[C@H](CO)NC(=O)[C@@H](NC(=O)[C@H](CC(=O)O)NC(=O)[C@H](CO)NC(=O)[C@@H](NC(=O)[C@](C)(Cc1ccccc1)NC(=O)[C@H](CO)NC(=O)CNC(=O)[C@H](CCC(=O)O)NC(=O)C(C)(C)NC(=O)[C@@H](N)Cc1c[nH]cn1)[C@@H](C)O)C(C)C)[C@@H](C)CC)C(C)C)C(N)=O)C(=O)O` [SEQ ID NO: 58, H-(Aib)^2-EG-(S)^5-(α-MeF)^6-TSDV^10 SS-(α-MeY)^13-LE^15 GQAA-(α-MeK)^20 E-(α-MeF)^22-IA-(α-MeW)^25 LV-(α-MeK)^28-G-(α-MeR)^30-K(Ε-γ-E-Palm)], the negative-log EC50 (pEC50) was 6.98 at hGluc-R, 10.07 at hGLP-1R and 6.98 on hGIP-R.

As to `CC[C@H](C)[C@H](NC(=O)[C@](C)(Cc1ccccc1)NC(=O)[C@H](CCC(=O)O)NC(=O)[C@H](CCCCN)NC(=O)[C@H](C)NC(=O)[C@H](C)NC(=O)[C@H](CCC(N)=O)NC(=O)CNC(=O)[C@H](CCC(=O)O)NC(=O)[C@H](CC(C)C)NC(=O)[C@](C)(Cc1ccccc1)NC(=O)[C@H](CO)NC(=O)[C@H](CO)NC(=O)[C@@H](NC(=O)[C@H](CC(=O)O)NC(=O)[C@H](CO)NC(=O)[C@@H](NC(=O)[C@](C)(Cc1ccccc1)NC(=O)[C@H](CO)NC(=O)CNC(=O)[C@H](CCC(=O)O)NC(=O)C(C)(C)NC(=O)[C@@H](N)Cc1c[nH]cn1)[C@@H](C)O)C(C)C)C(=O)N[C@@H](C)C(=O)N[C@@](C)(Cc1ccccc1)C(=O)N[C@@H](CC(C)C)C(=O)N[C@H](C(=O)N[C@@H](CCCCN)C(=O)NCC(=O)NCC(=O)N[C@@H](CO)C(=O)N[C@@H](CO)C(=O)NCC(=O)N[C@@H](CO)C(=O)N[C@@H](CO)C(=O)NCC(=O)N[C@@H](CO)C(=O)N[C@@H](CO)C(=O)NCC(=O)N[C@@H](CCCCN)C(N)=O)C(C)C` [SEQ ID NO: 48, H-(Aib)^2-EG-(S)^5-(α-MeF)^6-TSDV^10 SS-(α-MeF)^13-LE^15 GQAAK^20 E-(α-MeF)^22-IA-(α-MeF)^25 LVKG-(G)^30-(SSG)3-K] (H-H[Aib]EGS[αMeF]TSDVSS[αMeF]LEGQAAKE[αMeF]IA[αMeF]LVKGGSSGSSGSSGK-NH2), the negative logarithm of the EC50 (pEC50) was 7.08 at hGluc-R, 10.62 on hGLP-1R and 7.08 at hGIP-R.

On to `CC[C@H](C)[C@H](NC(=O)[C@H](Cc1ccccc1)NC(=O)[C@H](CCC(=O)O)NC(=O)[C@H](CCCCN)NC(=O)[C@H](C)NC(=O)[C@H](C)NC(=O)[C@H](CCC(N)=O)NC(=O)CNC(=O)[C@H](CCC(=O)O)NC(=O)[C@H](CC(C)C)NC(=O)[C@H](Cc1ccc(O)cc1)NC(=O)[C@H](CO)NC(=O)[C@H](CO)NC(=O)[C@@H](NC(=O)[C@H](CC(=O)O)NC(=O)[C@H](CO)NC(=O)[C@@H](NC(=O)[C@H](Cc1ccccc1)NC(=O)[C@@H](NC(=O)CNC(=O)[C@H](CCC(=O)O)NC(=O)C(C)(C)NC(=O)[C@@H](N)Cc1c[nH]cn1)[C@@H](C)O)[C@@H](C)O)C(C)C)C(=O)N[C@@H](C)C(=O)N[C@@](C)(Cc1ccccc1)C(=O)N[C@@H](CC(C)C)C(=O)N[C@H](C(=O)N[C@@H](CCCCN)C(=O)NCC(=O)N[C@@H](CCCNC(=N)N)C(N)=O)C(C)C` [SEQ ID NO: 14, H-(Aib)^2-EGT^5 FTSDV^10 SSYLE^15 GQAAK^20 EFIA-(α-MeF)^25 LVKGR^30], for which the negative-log EC50 (pEC50) at hGluc-R is 6.77; at hGLP-1R it was 10.71; at hGIP-R, 6.77.

Regarding `CC[C@H](C)[C@H](NC(=O)[C@H](Cc1ccccc1)NC(=O)[C@H](CCC(=O)O)NC(=O)[C@H](CCCCN)NC(=O)[C@H](C)NC(=O)[C@H](C)NC(=O)[C@H](CCC(N)=O)NC(=O)CNC(=O)[C@H](CCC(=O)O)NC(=O)[C@H](CC(C)C)NC(=O)[C@H](Cc1ccc(O)cc1)NC(=O)[C@H](CO)NC(=O)[C@H](CO)NC(=O)[C@@H](NC(=O)[C@H](CC(=O)O)NC(=O)[C@H](CO)NC(=O)[C@@H](NC(=O)[C@H](Cc1ccccc1)NC(=O)[C@@H](NC(=O)CNC(=O)[C@H](CCC(=O)O)NC(=O)C(C)(C)NC(=O)[C@@H](N)Cc1c[nH]cn1)[C@@H](C)O)[C@@H](C)O)C(C)C)C(=O)N[C@@H](C)C(=O)N[C@@H](Cc1c[nH]c2ccccc12)C(=O)N[C@@H](CC(C)C)C(=O)N[C@H](C(=O)N[C@@H](CCCCN)C(=O)NCC(=O)NC(C)(C)C(N)=O)C(C)C` [SEQ ID NO: 25, H-(Aib)^2-EGT^5 FTSDV^10 SSYLE^15 GQAAK^20 EFIAW^25 LVKG-(Aib)^30], the pEC50 on hGluc-R was 7.02; on hGLP-1R it was 10.56; on hGIP-R, 7.02.

Source of the values: patent US20160318987A1 (MEDIMMUNE LIMITED, priority 2013, published 2016).
